# Values quoted from earlier work as cited in US12472172B2, “Lomitapide for use in methods of treating hyperlipidemia and hypercholesterolemia in pediatric patients” (Amryt Pharmaceuticals Inc., priority 2020, dated 2025).
# Conditions: adult
smiles,measurement,value
"O=C(NC1CCN(CCCCC2(C(=O)NCC(F)(F)F)c3ccccc3-c3ccccc32)CC1)c1ccccc1-c1ccc(C(F)(F)F)cc1 [lomitapide, N-(2,2,2-trifluoroethyl)-9-[4-[4-[[[4′(trifluoromethyl)[1,1′-biphenyl]-2-yl]carbonyl]amino]-1-piperidinyl]butyl]-9H-fluorene-9-carboxamide]",previously used fixed Qgut input,17.9 L/h
